What was measured:
[1] = ref unpublished data owned by Sanofi, cited from earlier work
P. falciparum = assay: Study 1: phase 2 trial, efficacy of SAR97276A in uncomplicated falciparum malaria patients; assay type: in vivo, Plasmodium falciparum; settings: for Median time to 50% parasite reduction (95% CI) / Median time to 90% parasite reduction (95% CI): Kaplan–Meier; for Recurrences up to day 28: patients judged successfully treated after 72 h
Protocol: The study was designed to enroll up to 210 malaria patients in sequential cohorts. A staggered trial design was planned to assess a single, IM dose of SAR97276A (0.18 mg/kg, or 12.5 mg fixed dose) first in adults and then progressively in children (age 7–17 years) and young children (age 0.5–7 years). Age de-escalation of the study was only allowed if threshold response rate in the respective study cohort was met (26 patients out of 30 patients need to have met the 4 criteria of the primary endpoint at 72 h plus adequate safety results). If efficacy criteria were not met but safety was acceptable, SAR97276A would be tested as a 3-day IM regimen (3 injections, 24 h apart) in an additionally recruited 30 patients of the respective cohort. Subsequently, in case of acceptable safety and efficacy, all following cohorts were treated with the 3-day IM regimen. In parallel, SAR97276A was planned to be tested as a single, IV dose (0.14 mg/kg or 10 mg fixed dose) first in adults and then in young children with severe malaria, if threshold response rate was met. An overview of this adaptive study design can be seen in Fig. 1 and Table 1.
The following age cohorts were planned to be enrolled: (i) Adults aged 18–65 years, body weight ≥50 kg, and uncomplicated malaria with P. falciparum ≥100 parasites/µL; (ii) children aged 7–17 years, and uncomplicated malaria with P. falciparum ≥1000 parasites/µL, and (iii) young children aged of 0.5–7 years with uncomplicated malaria (P. falciparum count ≥1000 parasites/µL) and as an additional group with symptoms or signs of severe malaria according to WHO [9]. Adults received SAR97276A either by IM (study group 1A and 1B) or by IV route (study group 1C). Children received SAR97276A only by IM injection (study group 1D). Young children (0.5–7 years) both with uncomplicated and with severe malaria were not included as Study 1 was stopped before reaching these cohorts due to lack of efficacy.
Study duration and follow-up In both studies, study duration was 28 days for each patient including a screening period of up to 12 h before inclusion into the study. Participants were hospitalized for at least 3 days (72 h) after the start of treatment. Follow-up visits were done on day 6, 8, 14 ± 2, 21 ± 2, 28 ± 2 (Study 1); and day 7, 14 ± 2, 21 ± 2, 28 ± 2 (Study 2). Patient examination Fever measurements and thick blood smears were done every 6 h until 72 h and at each follow-up visit. Parasitemia was determined microscopically by Giemsa stained thick blood smear by two trained microscopists blinded to each other. Safety assessment Safety analysis was based on AEs including vision assessment recorded from baseline until day 28 (in binocular conditions, for near and distant visual acuity, using standard optotypes appropriate for patient’s age and reading ability. Tests with standard corrective glasses (+3 and −3 diopters) were performed in case of visual adverse events, to assess whether vision improved or worsened with corrective glasses). Laboratory tests including hematology, biochemistry and urine analysis were done at baseline, day 2, 4, 28 (Study 1), or baseline, day 2, 4, 14, 28 (Study 2); vital signs were recorded at baseline, every 6 h until 72 h and on each follow up visit. An electrocardiogram (ECG) was done at baseline, day 4, 28 (Study 1), or baseline, 48 h, 72 h, day 28 (Study 2). For Study 2 respiratory parameters (respiratory rate, peak flow, efficiency of cough) were also checked at baseline and 30 min after first dose on day 1, 2 and 3.
Definition of fever clearance Fever was defined as temperature ≥38 °C.
Definition of general condition improvement The symptoms were scored at baseline and every 6 h up to day 4 (72 h), including headache, fatigue, nausea-vomiting and abdominal pain. The symptoms were scored according to the following scale: absent -0-, mild -1-, moderate -2- and severe -3-. The total clinical score ranged between 0 and 12. […]

[2] = system: P. falciparum laboratory and clinical isolates; parameters: method as in PMID 11847346, PMID 15492221; settings: cited from earlier work
[3] = after single IM administration of 36 mg, phase 1
[4] = Group 1A: 1 day IM 0.18 mg/kg, adults, N=34
[5] = Group 1A: 1 day IM 0.18 mg/kg, adults, PCR data available 12/14
[6] = Group 1B: 3 days IM 0.18 mg/kg, adults, N=30
[7] = Group 1B: 3 days IM 0.18 mg/kg, adults, PCR data available 11/13
[8] = Group 1C: 1 day IV 0.14 mg/kg, adults, N=30
[9] = Group 1C: 1 day IV 0.14 mg/kg, adults, PCR data available 10/15
[10] = Group 1D: 3 days IM 0.18 mg/kg, children
[11] = Group 1D: 3 days IM 0.18 mg/kg, children, N=19
[12] = Group 1D: 3 days IM 0.18 mg/kg, children, PCR data available 8/8

Q: For `Cc1c(CCO)sc[n+]1CCCCCCCCCCCC[n+]1csc(CCO)c1C` [SAR97276A], which “Terminal half-life in plasma” value [1, 3] is on record?
A: 5.5 h

Q: And the “Terminal half-life in whole blood” value [1, 3]?
A: 73 h

Q: And the “Participants with an AE of severe intensity (ophthalmologic problems, temporary decrease in visual acuity), considered drug related” value ([1]; multiple administrations of 18 mg twice daily IM, phase 1)?
A: one

Q: And the “Participants with AEs of severe intensity (severe abdominal spasm)” value ([1]; multiple doses of 12.8 mg IV, phase 1)?
A: two

Q: And the “Highest tolerated dose for twice daily IM administration for 3 days” value ([1]; phase 1)?
A: 18 mg

Q: And the “Tolerability in three phase 1 clinical trials” value ([1]; single doses 0.2–12.8 mg IV, 3.2–36 mg IM)?
A: well tolerated

Q: What about the “General condition improvement at 48 h: Failure” value (P. falciparum; [4]) of the same molecule?
A: 2 (6%)

Q: What about the “General condition improvement at 48 h: Success” value (P. falciparum; [4]) of the same molecule?
A: 32 (94%)

Q: What about the “Parasite reduction (at least 90% at 72 h): Failure” value (P. falciparum; [4]) of the same molecule?
A: 11 (32%)

Q: What about the “Parasite reduction (at least 90% at 72 h): Success” value (P. falciparum; [4]) of the same molecule?
A: 23 (68%)

Q: What about the “Rescue therapy criterion (no need for rescue therapy): Failure” value (P. falciparum; [4]) of the same molecule?
A: 5 (15%)

Q: And the “Rescue therapy criterion (no need for rescue therapy): Success” value (P. falciparum; [4])?
A: 29 (85%)

Q: What about the “Median time to 50% parasite reduction (95% CI)” value (P. falciparum; [4]) of the same molecule?
A: 18.0 (12.0–24.0) h

Q: What about the “Median time to 90% parasite reduction (95% CI)” value (P. falciparum; [4]) of the same molecule?
A: 30.0 (18.0–30.0) h

Q: What about the “New infection (PCR genotyped recurrences up to day 28)” value (P. falciparum; [5]) of the same molecule?
A: 9 (75%)

Q: And the “Recrudescences (PCR genotyped recurrences up to day 28)” value (“Recrudescences” for short) (P. falciparum; [5])?
A: 3 (25%)

Q: What about the “Recurrences up to day 28” value (P. falciparum; Group 1A: 1 day IM 0.18 mg/kg, adults) of the same molecule?
A: 14

Q: And the “General condition improvement at 48 h: Failure” value (P. falciparum; [6])?
A: 2 (7%)

Q: What about the “General condition improvement at 48 h: Success” value (P. falciparum; [6]) of the same molecule?
A: 28 (93%)

Q: And the “Parasite reduction (at least 90% at 72 h): Failure” value (P. falciparum; [6])?
A: 2 (7%)

Q: And the “Parasite reduction (at least 90% at 72 h): Success” value (P. falciparum; [6])?
A: 28 (93%)

Q: What about the “Rescue therapy criterion (no need for rescue therapy): Failure” value (P. falciparum; [6]) of the same molecule?
A: 1 (3%)

Q: What about the “Rescue therapy criterion (no need for rescue therapy): Success” value (P. falciparum; [6]) of the same molecule?
A: 29 (97%)

Q: What about the “Median time to 50% parasite reduction (95% CI)” value (P. falciparum; [6]) of the same molecule?
A: 18.0 (6.0–24.0) h

Q: And the “Median time to 90% parasite reduction (95% CI)” value (P. falciparum; [6])?
A: 24.0 (12.0–36.0) h

Q: And the “New infection (PCR genotyped recurrences up to day 28)” value (P. falciparum; [7])?
A: 6 (54.5%)

Q: And the “Recrudescences” value (P. falciparum; [7])?
A: 5 (45.5%)

Q: And the “Recurrences up to day 28” value (P. falciparum; Group 1B: 3 days IM 0.18 mg/kg, adults)?
A: 13

Q: And the “General condition improvement at 48 h: Failure” value (P. falciparum; [8])?
A: 1 (3%)

Q: What about the “General condition improvement at 48 h: Success” value (P. falciparum; [8]) of the same molecule?
A: 29 (97%)

Q: And the “Parasite reduction (at least 90% at 72 h): Failure” value (P. falciparum; [8])?
A: 7 (23%)

Q: What about the “Parasite reduction (at least 90% at 72 h): Success” value (P. falciparum; [8]) of the same molecule?
A: 23 (77%)

Q: What about the “Rescue therapy criterion (no need for rescue therapy): Failure” value (P. falciparum; [8]) of the same molecule?
A: 1 (3%)

Q: What about the “Rescue therapy criterion (no need for rescue therapy): Success” value (P. falciparum; [8]) of the same molecule?
A: 29 (97%)

Q: What about the “Median time to 50% parasite reduction (95% CI)” value (P. falciparum; [8]) of the same molecule?
A: 9.0 (6.0–18.0) h

Q: What about the “Median time to 90% parasite reduction (95% CI)” value (P. falciparum; [8]) of the same molecule?
A: 30.0 (18.0–30.0) h

Q: And the “New infection (PCR genotyped recurrences up to day 28)” value (P. falciparum; [9])?
A: 6 (60%)

Q: And the “Recrudescences” value (P. falciparum; [9])?
A: 4 (40%)

Q: What about the “Recurrences up to day 28” value (P. falciparum; Group 1C: 1 day IV 0.14 mg/kg, adults) of the same molecule?
A: 15

Q: And the “Recrudescence of the same parasite until day 14 in successfully cured children (assessed after 72 h)” value (P. falciparum; [10])?
A: 3/13

Q: And the “Enrolled patients failed to meet the predetermined efficacy response criteria” value (P. falciparum; Group 1D: 3 days IM 0.18 mg/kg, children's cohort)?
A: 5/19

Q: What about the “General condition improvement at 48 h: Failure” value (P. falciparum; [11]) of the same molecule?
A: 1 (5%)

Q: And the “General condition improvement at 48 h: Not evaluable” value (P. falciparum; [11])?
A: 1 (5%)

Q: And the “General condition improvement at 48 h: Success” value (P. falciparum; [11])?
A: 17 (90%)

Q: And the “Parasite reduction (at least 90% at 72 h): Failure” value (P. falciparum; [11])?
A: 5 (26%)

Q: What about the “Parasite reduction (at least 90% at 72 h): Not evaluable” value (P. falciparum; [11]) of the same molecule?
A: 0

Q: What about the “Parasite reduction (at least 90% at 72 h): Success” value (P. falciparum; [11]) of the same molecule?
A: 14 (74%)

Q: What about the “Rescue therapy criterion (no need for rescue therapy): Failure” value (P. falciparum; [11]) of the same molecule?
A: 4 (21%)

Q: And the “Rescue therapy criterion (no need for rescue therapy): Not evaluable” value (P. falciparum; [11])?
A: 0

Q: What about the “Rescue therapy criterion (no need for rescue therapy): Success” value (P. falciparum; [11]) of the same molecule?
A: 15 (79%)

Q: What about the “Median time to 50% parasite reduction (95% CI)” value (P. falciparum; [11]) of the same molecule?
A: 24.0 (12.0–24.0) h

Q: And the “Median time to 90% parasite reduction (95% CI)” value (P. falciparum; [11])?
A: 24.0 (24.0–30.0) h

Q: And the “New infection (PCR genotyped recurrences up to day 28)” value (P. falciparum; [12])?
A: 0

Q: What about the “Recrudescences” value (P. falciparum; [12]) of the same molecule?
A: 8 (100%)

Q: And the “Recurrences up to day 28” value (P. falciparum; [10])?
A: 8

Q: And the “Recurrences in the successfully treated patients until day 28, total” value (P. falciparum; Study 1, all groups)?
A: 50

Q: And the “New infections among genotyped recurrences, total” value (P. falciparum; Study 1, all groups, 41 recurrences genotyped by PCR)?
A: 21

Q: And the “In vitro-activity against P. falciparum laboratory and clinical isolates” value [2]?
A: powerful in vitro-activity

From article PMC5418711, “Safety and efficacy of the choline analogue SAR97276 for malaria treatment: results of two phase 2, open-label, multicenter trials in African patients” (Malaria Journal, 2017)
